{"source": "patent US8513238B2", "about": "(Hoffmann-La Roche Inc., priority 2010, dated 2013)", "note": "Counter-ions that a name gives are not always drawn."}
{"target": "T1, human V1a receptor (Homo sapiens, UniProt P37288)", "T1 construct": "expressed in transfected cells; host or cells: HEK293 cells, transiently transfected; membranes prepared", "T1 sequence (P37288 whole entry)": "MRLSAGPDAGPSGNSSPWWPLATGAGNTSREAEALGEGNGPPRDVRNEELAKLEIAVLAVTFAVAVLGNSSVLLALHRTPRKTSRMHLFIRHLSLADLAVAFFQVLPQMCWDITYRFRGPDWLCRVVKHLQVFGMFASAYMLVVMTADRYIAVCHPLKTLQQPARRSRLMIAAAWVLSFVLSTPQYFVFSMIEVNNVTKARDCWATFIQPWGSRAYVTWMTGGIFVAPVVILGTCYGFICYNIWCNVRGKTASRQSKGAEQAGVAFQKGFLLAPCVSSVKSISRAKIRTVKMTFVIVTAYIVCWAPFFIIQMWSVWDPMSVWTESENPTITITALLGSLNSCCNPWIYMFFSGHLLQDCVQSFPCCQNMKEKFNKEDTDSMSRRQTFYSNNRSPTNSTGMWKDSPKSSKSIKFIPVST", "experiment": "human V1a receptor binding (3H-Vasopressin SPA, HEK293 membranes)", "conditions": "membranes of HEK293 cells transiently transfected with human V1a receptor, Ki by Cheng-Prussoff, read-out: pKi (hV1a) (converted)", "procedure": "The human V1a receptor was cloned by RT-PCR from total human liver RNA. The coding sequence was subcloned in an expression vector after sequencing to confirm the identity of the amplified sequence. […] Cell membranes were prepared from HEK293 cells transiently transfected with the expression vector and grown in 20 liter fermenters with the following protocol.\n50 g of cells are resuspended in 30 ml freshly prepared ice cold Lysis buffer (50 mM HEPES, 1 mM EDTA, 10 mM magnesium dichloride adjusted to pH=7.4+complete cocktail of protease inhibitor (Roche Diagnostics)). Homogenized with Polytron for 1 min and sonicated on ice for 2×2 minutes at 80% intensity (Vibracell sonicator). The preparation is centrifuged 20 min at 500 g at 4° C., the pellet is discarded and the supernatant centrifuged 1 hour at 43,000 g at 4° C. (19,000 rpm). The pellet is resuspended in 12.5 ml Lysis buffer+12.5 ml sucrose 20% and homogenized using a Polytron for 1-2 min. The protein concentration is determined by the Bradford method and aliquots are stored at −80° C. until use. For binding studies 60 mg Yttrium silicate SPA beads (Amersham®) are mixed with an aliquot of membrane in binding buffer (50 mM Tris, 120 mM sodium chloride, 5 mM potassium chloride, 2 mM calcium dichloride, 10 mM magnesium dichloride) for 15 minutes with mixing. 50 μl of bead/membrane mixture is then added to each well of a 96 well plate, followed by 50 μl of 4 nM 3H-Vasopressin (American Radiolabeled Chemicals). For total binding measurement 100 μl of binding buffer are added to the respective wells, for non-specific binding 100 μl of 8.4 mM cold vasopressin and for compound testing 100 μl of a serial dilution of each compound in 2% dimethyl sulfoxide. The plate is incubated 1 h at room temperature, centrifuged 1 min at 1000 g and counted on a Packard Top-Count. Non-specific binding counts are subtracted from each well and data is normalized to the maximum specific binding set at 100%. To calculate an IC50 the curve is fitted using a non-linear regression model (XLfit) and the Ki is calculated using the Cheng-Prussoff equation.", "units": {"Ki": "nM"}}
{"smiles": "Cc1nc([C@H]2CC[C@H](c3nnc4n3-c3ccc(Cl)cc3CN(C3CCC3)C4)CC2)no1", "note": "[Example 77, trans-8-Chloro-5-cyclobutyl-1-[4-(5-methyl-[1,2,4]oxadiazol-3-yl)-cyclohexyl]-5,6-dihydro-4H-2,3,5,10b-tetraaza-benzo[e]azulene]", "Ki": 1.51}
{"smiles": "CCc1nc([C@H]2CC[C@H](c3nnc4n3-c3ccc(Cl)cc3CN(C)C4)CC2)no1", "note": "[Example 88]", "Ki": 14.5}
{"smiles": "Cc1noc([C@H]2CC[C@H](c3nnc4n3-c3ccc(Cl)cc3CNC4)CC2)n1", "note": "[Example 67, trans-8-Chloro-1-[4-(3-methyl-[1,2,4]oxadiazol-5-yl)-cyclohexyl]-5,6-dihydro-4H-2,3,5,10b-tetraaza-benzo[e]azulene hydrochloride]", "Ki": 67.6}
{"smiles": "Cc1nc([C@H]2CC[C@H](c3nnc4n3-c3ccc(Cl)cc3CN(C(=O)OC(C)(C)C)C4)CC2)sc1C", "note": "[Example 104, trans-8-Chloro-1-[4-(4,5-dimethyl-thiazol-2-yl)-cyclohexyl]-4H,6H-2,3,5,10b-tetraaza-benzo[e]azulene-5-carboxylic acid tert-butyl ester]", "Ki": 0.794}
{"smiles": "Cc1nc([C@H]2CC[C@H](c3nnc4n3-c3ccc(Cl)cc3CNC4)CC2)oc1C", "note": "[Example 11, trans-8-Chloro-1-[4-(4,5-dimethyl-oxazol-2-yl)-cyclohexyl]-5,6-dihydro-4H-2,3,5,10b-tetraaza-benzo[e]azulene]", "Ki": 5.5}
{"smiles": "Cc1csc([C@H]2CC[C@H](c3nnc4n3-c3ccc(Cl)cc3CNC4)CC2)n1", "note": "[Example 17, trans-8-Chloro-1-[4-(4-methyl-thiazol-2-yl)-cyclohexyl]-5,6-dihydro-4H-2,3,5,10b-tetraaza-benzo[e]azulene]", "Ki": 7.59}
{"smiles": "CCc1cc([C@H]2CC[C@@H](c3nnc4n3-c3ccc(Cl)cc3CN(C)C4)CC2)no1", "note": "[Example 51, cis-8-Chloro-1-[4-(5-ethyl-isoxazol-3-yl)-cyclohexyl]-5-methyl-5,6-dihydro-4H-2,3,5,10b-tetraaza-benzo[e]azulene]", "Ki": 15.5}
{"smiles": "Cc1cc([C@H]2CC[C@H](c3nnc4n3-c3ccc(F)cc3CN(C)C4)CC2)no1", "note": "[Example 38, trans-8-Fluoro-1-[4-(5-methyl-isoxazol-3-yl)-cyclohexyl]-5-methyl-5,6-dihydro-4H-2,3,5,10b-tetraaza-benzo[e]azulene]", "Ki": 18.6}
{"smiles": "Cc1cc([C@H]2CC[C@H](c3nnc4n3-c3ccc(Cl)cc3CN(C(=O)CN(C)C)C4)CC2)no1", "note": "[Example 33, trans-1-{8-Chloro-1-[4-(5-methyl-isoxazol-3-yl)-cyclohexyl]-4H,6H-2,3,5,10b-tetraaza-benzo[e]azulen-5-yl}-2-dimethylamino-ethanone hydroformate]", "Ki": 2}
{"smiles": "CN1Cc2cc(Cl)ccc2-n2c(nnc2[C@H]2CC[C@H](n3cccn3)CC2)C1", "note": "[Example 111, trans-8-Chloro-5-methyl-1-(4-pyrazol-1-yl-cyclohexyl)-5,6-dihydro-4H-2,3,5,10b-tetraaza-benzo[e]azulene]", "Ki": 17}
{"smiles": "Cc1nc([C@H]2CC[C@H](c3nnc4n3-c3ccc(Cl)cc3CN(C)C4)CC2)oc1Cl", "note": "[Example 100, trans-8-Chloro-1-[4-(5-chloro-4-methyl-oxazol-2-yl)-cyclohexyl]-5-methyl-5,6-dihydro-4H-2,3,5,10b-tetraaza-benzo[e]azulene]", "Ki": 1.1}
{"smiles": "CCc1cc([C@H]2CC[C@@H](c3nnc4n3-c3ccc(Cl)cc3CN(C(=O)OC(C)(C)C)C4)CC2)no1", "note": "[Example 48, cis-8-Chloro-1-[4-(5-ethyl-isoxazol-3-yl)-cyclohexyl]-4H,6H-2,3,5,10b-tetraaza-benzo[e]azulene-5-carboxylic acid tert-butyl ester]", "Ki": 8.32}
{"smiles": "Cc1onc([C@H]2CC[C@H](c3nnc4n3-c3ccc(Cl)cc3CN(C(=O)OC(C)(C)C)C4)CC2)c1F", "note": "[Example 45, trans-8-Chloro-1-[4-(4-fluoro-5-methyl-isoxazol-3-yl)-cyclohexyl]-4H,6H-2,3,5,10b-tetraaza-benzo[e]azulene-5-carboxylic acid tert-butyl ester]", "Ki": 0.724}
{"smiles": "CCc1nc([C@H]2CC[C@@H](c3nnc4n3-c3ccc(Cl)cc3CN(C)C4)CC2)no1", "note": "[Example 90]", "Ki": 295}
{"smiles": "CC(C)c1nc([C@H]2CC[C@@H](c3nnc4n3-c3ccc(Cl)cc3CN(C(=O)OC(C)(C)C)C4)CC2)no1", "note": "[Example 91, cis-8-Chloro-1-[4-(5-isopropyl-[1,2,4]oxadiazol-3-yl)-cyclohexyl]-4H,6H-2,3,5,10b-tetraaza-benzo[e]azulene-5-carboxylic acid tert-butyl ester]", "Ki": 34.7}
{"smiles": "CC(C)(C)OC(=O)N1Cc2cc(Cl)ccc2-n2c(nnc2[C@H]2CC[C@H](c3ncco3)CC2)C1", "note": "[Example 1, trans-8-Chloro-1-(4-oxazol-2-yl-cyclohexyl)-4H,6H-2,3,5,10b-tetraaza-benzo[e]azulene-5-carboxylic acid tert-butyl ester]", "Ki": 1}
{"smiles": "Cc1noc([C@H]2CC[C@H](c3nnc4n3-c3ccc(Cl)cc3CN(C(=O)OC(C)(C)C)C4)CC2)n1", "note": "[Example 66, trans-8-Chloro-1-[4-(3-methyl-[1,2,4]oxadiazol-5-yl)-cyclohexyl]-4H,6H-2,3,5,10b-tetraaza-benzo[e]azulene-5-carboxylic acid tert-butyl ester]", "Ki": 2.88}
{"smiles": "Cc1cc([C@H]2CC[C@H](c3nnc4n3-c3ccc(F)cc3CN(C(=O)OC(C)(C)C)C4)CC2)no1", "note": "[Example 36, trans-8-Fluoro-1-[4-(5-methyl-isoxazol-3-yl)-cyclohexyl]-4H,6H-2,3,5,10b-tetraaza-benzo[e]azulene-5-carboxylic acid tert-butyl ester]", "Ki": 0.776}
{"smiles": "Cc1cc([C@H]2CC[C@H](c3nnc4n3-c3ccc(Cl)cc3CNC4)CC2)no1", "note": "[Example 23, trans-8-Chloro-1-[4-(5-methyl-isoxazol-3-yl)-cyclohexyl]-5,6-dihydro-4H-2,3,5,10b-tetraaza-benzo[e]azulene hydrochloride]", "Ki": 6.46}
{"smiles": "Cc1coc([C@H]2CC[C@H](c3nnc4n3-c3ccc(Cl)cc3CN(C(=O)OC(C)(C)C)C4)CC2)n1", "note": "[Example 4, trans-8-Chloro-1-[4-(4-methyl-oxazol-2-yl)-cyclohexyl]-4H,6H-2,3,5,10b-tetraaza-benzo[e]azulene-5-carboxylic acid tert-butyl ester]", "Ki": 0.398}
{"smiles": "CC(C)c1nc([C@H]2CC[C@@H](c3nnc4n3-c3ccc(Cl)cc3CN(C)C4)CC2)no1", "note": "[Example 96]", "Ki": 204}
{"smiles": "Cc1onc([C@H]2CC[C@H](c3nnc4n3-c3ccc(Cl)cc3CNC4)CC2)c1F", "note": "[Example 46, trans-8-Chloro-1-[4-(4-fluoro-5-methyl-isoxazol-3-yl)-cyclohexyl]-5,6-dihydro-4H-2,3,5,10b-tetraaza-benzo[e]azulene]", "Ki": 8.51}
{"smiles": "Cc1csc([C@H]2CC[C@H](c3nnc4n3-c3ccc(Cl)cc3CN(C(=O)OC(C)(C)C)C4)CC2)n1", "note": "[Example 16, trans-8-Chloro-1-[4-(4-methyl-thiazol-2-yl)-cyclohexyl]-4H,6H-2,3,5,10b-tetraaza-benzo[e]azulene-5-carboxylic acid tert-butyl ester]", "Ki": 0.302}
{"smiles": "CCN1Cc2cc(Cl)ccc2-n2c(nnc2[C@H]2CC[C@H](c3cc(C)on3)CC2)C1", "note": "[Example 25, trans-8-Chloro-5-ethyl-1-[4-(5-methyl-isoxazol-3-yl)-cyclohexyl]-5,6-dihydro-4H-2,3,5,10b-tetraaza-benzo[e]azulene]", "Ki": 1.74}
